Columns and labels:
[1] = pH at which the solution buffers out; format: physicochemical; conditions: in solution, residual on teat surface
teat area of animals = conditions: in vivo

Cc1ccc(S(=O)(=O)[N-]Cl)cc1.[Na+] [CHT, Chloramine T]
pH at which it naturally buffers out [1]: about 9
irritation of the teat area (teat area of animals): do not irritate the teat area

Reference: US20040225017A1, “Chloramine T based teat cleaner and related process” (priority 2003, published 2004)
